Molecules are shown by their SMILES. A value given as a limit tells only on which side of the number the result lay.

The experiment addresses T1, CDK2/Cyclin E complex (Homo sapiens, UniProt P24941).
T1 construct: purchased Eurofins 14-475
The experiment is described as follows: CDK2/Cyclin E fluorescence-based microfluidic mobility shift assay (CDK2 Biochemical Caliper Assay). As to conditions: read-out: Biochemical CDK2/CyclinE Caliper IC50. An outline of the steps:
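Wild-type CDK2/Cyclin E was preincubated with compound and ATP for 30 min at RT before the 5-FAM-QSPKKG peptide was added. Final concentrations were 0.1 nM enzyme, 2000 uM ATP, 1.5 uM peptide and 1% DMSO. After 20 hr at RT and EDTA stop, substrate conversion was read by microfluidic mobility shift over an 11-point, 3-fold dilution series.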
With `c1cc2nc(Nc3cc(C4CCCC4)[nH]n3)ccn2n1` [Example 877], the IC50 lay in the range of 250 to 1000 nM. `COc1ccc2cnnc(Nc3cc(C4CCCC4)[nH]n3)c2c1` [Example 878]: the IC50 fell in the range of 1000 to 100000 nM. On to `Cn1nc(COC(F)(F)F)cc1C(=O)Nc1cc([C@H]2C[C@@H](OC(=O)NC(C)(C)C#N)CO2)[nH]n1` [Example 879], for which the IC50 is no more than 100 nM. Next, `COCc1cc(C(=O)Nc2cc([C@H]3C[C@@H](OC(=O)NC4(C)CC4)CO3)[nH]n2)n(C)n1` [Example 880]: no more than 100 nM; `Cn1nc(OCC(F)(F)F)cc1C(=O)Nc1cc([C@H]2C[C@@H](OC(=O)NC34CC(C3)C4)CO2)[nH]n1` [Example 881]: no more than 100 nM; `Cn1nc(OC(F)(F)Cl)cc1C(=O)Nc1cc([C@H]2C[C@@H](OC(=O)NC3(C)CC3)CO2)[nH]n1` [Example 882]: no more than 100 nM. Regarding `Cn1nc(C=O)cc1C(=O)Nc1cc([C@H]2C[C@@H](OC(=O)NC3(C)CC3)CO2)[nH]n1` [Example 883], the IC50 was no more than 100 nM. Next, `Cn1nc(COC(F)(F)F)cc1C(=O)Nc1cc([C@H]2C[C@@H](OC(=O)NC34C5C6C7C5C3C7C64)CO2)[nH]n1` (some centres unmarked) [Example 884]: no more than 100 nM; `COCC1(NC(=O)O[C@H]2CO[C@@H](c3cc(NC(=O)c4cc(COC(F)(F)F)nn4C)n[nH]3)C2)CC1` [Example 885]: no more than 100 nM; `CC1(NC(=O)O[C@H]2CO[C@@H](c3cc(NC(=O)c4cnn(CCOC(F)(F)F)c4)n[nH]3)C2)CC1` [Example 886]: no more than 100 nM. Next, `Cn1nc(OCC(F)F)cc1C(=O)Nc1cc([C@H]2C[C@@H](OC(=O)NC34CC(C3)C4)CO2)n[nH]1` [Example 887]: no more than 100 nM; `Cn1nc(COC(F)(F)F)cc1C(=O)Nc1cc([C@H]2C[C@@H](OC(=O)NC3(C)COC3)CO2)[nH]n1` [Example 888]: no more than 100 nM. Next, `Cn1nc(COC(F)(F)F)cc1C(=O)Nc1cc([C@@H]2C[C@H](OC(=O)NC3(C)COC3)CO2)[nH]n1` [Example 893]: no more than 100 nM. With `COCC1(NC(=O)O[C@@H]2CO[C@H](c3cc(NC(=O)c4cc(COC(F)(F)F)nn4C)n[nH]3)C2)CC1` [Example 894], the IC50 is no more than 100 nM. Next, `COCc1cc(C(=O)Nc2cc([C@H]3C[C@@H](OC(=O)NC4(C)CC4)CO3)[nH]n2)n(C(F)(F)F)n1` [Example 895]: no more than 100 nM. Under `COCc1cc(C(=O)Nc2cc([C@H]3C[C@@H](Oc4[nH]ncc4C(C)C)CO3)[nH]n2)n(C)n1` [Example 896] stands no more than 100 nM; under `CC1(NC(=O)O[C@H]2CO[C@@H](c3cc(Nc4nccn5nc(COC(F)(F)F)cc45)n[nH]3)C2)CC1` [Example 897], no more than 100 nM. Under `CC1(NC(=O)O[C@H]2CO[C@H](c3cc(Nc4nccc5nc(C(F)(F)F)cn45)n[nH]3)C2)CC1` [Example 898] stands 250 to 1000 nM; under `CC1(NC(=O)O[C@H]2CO[C@@H](c3cc(Nc4nccc5nc(C(F)(F)F)cn45)n[nH]3)C2)CC1` [Example 901], no more than 100 nM; under `Cn1nc(CO)cc1C(=O)Nc1cc([C@H]2C[C@@H](OC(=O)NC3(C)CC3)CO2)[nH]n1` [Example 902], 250 to 1000 nM. As to `COCc1cn2c(Nc3cc([C@@H]4C[C@@H](OC(=O)NC5(C)CC5)CO4)[nH]n3)nccc2n1` [Example 904], the IC50 was 1000 to 100000 nM. With `COCc1cn2c(Nc3cc([C@H]4C[C@@H](OC(=O)NC5(C)CC5)CO4)[nH]n3)nccc2n1` [Example 906], the IC50 was no more than 100 nM.

On to `Cn1nc(OCC(F)F)cc1C(=O)Nc1cc([C@@H]2C[C@H](OC(=O)NC34CC(C3)C4)CO2)[nH]n1` [Example 907], for which the IC50 is no more than 100 nM. Take `Cn1nc(OCC(F)(F)F)cc1C(=O)Nc1cc([C@@H]2C[C@H](OC(=O)NC34CC(C3)C4)CO2)[nH]n1` [Example 908]: the IC50 is no more than 100 nM.

Consider `C[C@@H](NC(=O)O[C@@H]1CO[C@H](c2cc(NC(=O)c3cc(OCC(F)F)nn3C)n[nH]2)C1)C1CC1` [Example 909], for which the IC50 was no more than 100 nM. Take `C[C@@H](NC(=O)O[C@@H]1CO[C@H](c2cc(NC(=O)c3cc(OCC(F)(F)F)nn3C)n[nH]2)C1)C1CC1` [Example 910]: the IC50 is no more than 100 nM. Under `COC12CC(NC(=O)O[C@@H]3CO[C@H](c4cc(NC(=O)c5cc(COC(F)(F)F)nn5C)n[nH]4)C3)(C1)C2` [Example 911] stands no more than 100 nM; under `Cn1nc(COC(F)(F)F)cc1C(=O)Nc1cc([C@@H]2C[C@H](OC(=O)NC34CC(C#N)(C3)C4)CO2)[nH]n1` [Example 912], no more than 100 nM. Under `COC12CC(NC(=O)O[C@H]3CO[C@@H](c4cc(NC(=O)c5cc(COC(F)(F)F)nn5C)n[nH]4)C3)(C1)C2` [Example 913] stands no more than 100 nM; under `Cn1nc(COC(F)(F)F)cc1C(=O)Nc1cc([C@H]2C[C@@H](OC(=O)NC34CC(C#N)(C3)C4)CO2)[nH]n1` [Example 914], no more than 100 nM; under `C[C@@H](NC(=O)O[C@H]1CO[C@@H](c2cc(NC(=O)c3cc(OCC(F)F)nn3C)n[nH]2)C1)C1CC1` [Example 915], no more than 100 nM.

Regarding `C[C@H](NC(=O)O[C@H]1CO[C@@H](c2cc(NC(=O)c3cc(OCC(F)F)nn3C)n[nH]2)C1)C1CC1` [Example 916], the IC50 was no more than 100 nM. Next, `C[C@@H](NC(=O)O[C@H]1CO[C@@H](c2cc(NC(=O)c3cc(OCC(F)(F)F)nn3C)n[nH]2)C1)C1CC1` [Example 917]: no more than 100 nM; `C[C@H](NC(=O)O[C@H]1CO[C@@H](c2cc(NC(=O)c3cc(OCC(F)(F)F)nn3C)n[nH]2)C1)C1CC1` [Example 918]: no more than 100 nM. Consider `C[C@H](NC(=O)O[C@@H]1CO[C@H](c2cc(NC(=O)c3cc(OCC(F)F)nn3C)n[nH]2)C1)C1CC1` [Example 919], for which the IC50 was no more than 100 nM. As for `C[C@H](NC(=O)O[C@@H]1CO[C@H](c2cc(NC(=O)c3cc(OCC(F)(F)F)nn3C)n[nH]2)C1)C1CC1` [Example 920], the IC50 is no more than 100 nM. For the molecule `COCc1cn2c(Nc3cc([C@@H]4C[C@H](OC(=O)NC5(C)CC5)CO4)[nH]n3)nccc2n1` [Example 921], the IC50 was no more than 100 nM. Under `CC1(NC(=O)O[C@@H]2CO[C@H](c3cc(Nc4nccn5nc(COC(F)(F)F)cc45)n[nH]3)C2)CC1` [Example 922] stands no more than 100 nM.
